The source of these data is patent publication US6596771B2, “Drugs for treating viral infections” (priority 2001, dated 2003).

In brackets after ≈: the same amount, converted by molar mass. Read-outs that look alike come from different tables or passages of the source.

In series [1] the test system is Vaccinia Virus. It is filed as cell-based.
Series [2] concerns cowpox virus. It counts as cell-based.
Series [3] relates to cowpox virus. It counts as cell-based. This is another data set of the same source.
In series [4] the test system is Vaccinia Virus. It counts as cell-based. The source holds these as a separate data set.
The subject of another series is cowpox. Further details: species or system female BALB/c mice. The note with it: mouse, in vivo.
The subject of another series is stationary HFF cells. The series is described as follows: Neutral Red Uptake Assay (toxicity). It counts as cell-based, human.

Take `Nc1ccn(C[C@@H](CO)OCP(=O)(O)O)c(=O)n1` [CDV, reference compound]: the EC50 in the series on Vaccinia Virus [1] stood at 1.80 microgram/mL; in the series with cowpox virus [3] it was 2.30 microgram/mL. Moreover, the “concentration at which active in these cells” value in the series on cowpox virus [2] is “about 12.0 microgram microgram/mL”.

In the case of `O=S(=O)(NC12CC3CC(CC(C3)C1)C2)NS(=O)(=O)NC12CC3CC(CC(C3)C1)C2` [Example 1, N,N^1-Bis(tricyclo[3.3.1.1^3,7]dec-1-yl)imidodisulfamide], the EC90 came to 1.40 microgram/mL in the series on Vaccinia Virus [1] and 0.15 µg/mL (≈ 0.338 µM) in the series with Vaccinia Virus [4]. Further, the CC50 in the series with HFF cells amounted to 77.80 microgram/mL.

With `O=S(=O)([N-]S(=O)(=O)NC12CC3CC(CC(C3)C1)C2)NC12CC3CC(CC(C3)C1)C2.[Na+]` [Example 11], the figures for the EC50 in the series on Vaccinia Virus [1] and in the series with cowpox virus [3] were 0.04 microgram/mL and 0.50 microgram/mL, respectively. For the same compound, the values for the EC90 with Vaccinia Virus [1] and in the series on cowpox virus [3] were 0.11 microgram/mL and 2.10 microgram/mL, respectively. In addition, in the series on cowpox, the “Lung titer on Day 3” value turned out to be 6.6±1.3. The same compound registered a CC50 in the series on stationary HFF cells of 87.6 microgram/mL.
